Measurements as given in US20250101017A1, “SALT CRYSTAL FORM AND FREE BASE CRYSTAL FORM OF KINASE INHIBITOR” (CYTOSINLAB THERAPEUTICS CO., LTD., priority 2022, published 2025).
Like-named read-outs stand apart in the source and are kept apart here.

Assays:
Format in all cases: physicochemical
[1] = Dynamic moisture adsorption (DVS), hygroscopicity; conditions: DVS; for moisture absorption weight gain: 80% RH humidity
Protocol: DSV pattern determination method: Dynamic moisture adsorption was performed using Intrinsic DVS. In step mode, the sample is subjected to loop testing at a relative humidity of 0-90%. The sample is analyzed at 10% RH. The dm/dt is set to 0.002 to achieve equilibrium between the sample and the room environment.
Approximately 250 mg of API was weighed and added into a 4 ml glass vial, and 2.5 ml of ethyl acetate was added. The mixture was stirred overnight under magnetic stirring at 50° C., cooled to room temperature, and then filtered, and the obtained solid was dried in vacuum overnight in a 50° C. oven. The resulting solid was free base crystal form Form B. The free base crystal form Form B was subjected to various characterization.

[2] = Competitive pulping of API (free base Form A) and Form B in saturated DCM or water solution at 50° C., XRPD
Protocol: A saturated solution of API (free base Form A) in DCM and water was prepared. Approximately 10 mg of API (free base Form A) and free base crystal form Form B was weighed respectively and added into a 4 ml glass bottle, and 1 mL of the saturated solution was added. […] The resulting solid was subjected to XRPD testing.

[3] = Solid stability of crystal forms (80° C., light exposure, 25° C./60% RH, 40° C./75% RH); purity by liquid chromatography and XRPD of the solids
Protocol: A certain amount of API and malate crystal form VII-A were weighed and added into a liquid phase vial, and a total of 9 parallels were prepared. The 9 parallels were placed separately in 80° C. (open); 25° C., 60% RH (open); 40° C., 75% RH (open); and light stability box closed). The stabilities under conditions of: 80° C. for one day, light exposure for 10 days, as well as 25° C., 60% RH and 40° C., 75% RH for one and two weeks were tested, and the XRPD of the solids were measured.
A certain amount of crystal form B was weighed and added into a liquid phase vial, and a total of 9 parallels were prepared. 9 parallels were placed separately in 80° C.; 25° C., 60% RH, 40° C., 75% RH; and light stability boxe.

[4] = Solubility at 37° C. in buffer solutions with different pH (about 10 mg in 1 ml, 2 h and 24 h); filtrate concentration and pH, XRPD of remaining solid; conditions: thermodynamic from solid, read-out: Solubility at 37° C.
Protocol: Approximately 10 mg of malate crystal form VII-A and free base Form A were weighed separately, and 1 ml of buffer solutions with different pH were added to make the solution supersaturated, and the mixtures were stirred at 37° C. for 2 h and 24 hours. The samples were filtered, and the filtrates were measured to determine the concentration and pH value, and the remaining solid was subjected to XRPD determination. The specific results were as follows: […]

[5] = 25° C., 60% RH, 1 week, listed as API
[6] = 25° C., 60% RH, 2 weeks, listed as API
[7] = 40° C., 75% RH, 1 week, listed as API
[8] = 40° C., 75% RH, 2 weeks, listed as API
[9] = Light control, 10 days, listed as API
[10] = Light exposure, 10 days, listed as API

moisture absorption weight gain [1]: 1.05%
moisture absorption weight gain ([1]; listed as API): 11.12%
hygroscopicity [1]: slight hygroscopicity
solid crystal form obtained by competitive pulping ([2]; API and Form B together in DCM, 50° C., 3 days, XRPD): tended to approach Form L
appearance after competitive pulping ([2]; API and Form B together in DCM, after 5 days of beating): became oily
crystal form obtained by competitive pulping ([2]; API and Form B together in water, 50° C., 3 days, XRPD): a mixture of Form B and API
XRPD results ([2]; competitive pulping of API and Form B, DCM, 50° C., 3 days): Form K
Degradation (%) ([3]; 25° C., 60% RH (open), 1 week): 0.03%
Purity (%) ([3]; 25° C., 60% RH (open), 1 week): 95.50%
Crystal form ([3]; 25° C., 60% RH (open), 1 week, XRPD): Unchanged
Degradation (%) ([3]; 25° C., 60% RH (open), 2 weeks): 0.04%
Purity (%) ([3]; 25° C., 60% RH (open), 2 weeks): 95.49%
Crystal form ([3]; 25° C., 60% RH (open), 2 weeks, XRPD): Unchanged
Crystal form ([3]; 25° C., 60% RH, 1 week): Unchanged
Degradation [3, 5]: 0.03%
Purity [3, 5]: 95.50%
Crystal form ([3]; 25° C., 60% RH, 2 weeks): Unchanged
Degradation [3, 6]: 0.04%
Purity [3, 6]: 95.49%
Degradation (%) ([3]; 40° C., 75% RH (open), 1 week): 0.04%
Purity (%) ([3]; 40° C., 75% RH (open), 1 week): 95.49%
Crystal form ([3]; 40° C., 75% RH (open), 1 week, XRPD): Unchanged
Degradation (%) ([3]; 40° C., 75% RH (open), 2 weeks): 2.93%
Purity (%) ([3]; 40° C., 75% RH (open), 2 weeks): 92.60%
Crystal form ([3]; 40° C., 75% RH (open), 2 weeks, XRPD): Unchanged
Crystal form ([3]; 40° C., 75% RH, 1 week): Unchanged
Degradation [3, 7]: 0.04%
Purity [3, 7]: 95.49%
Crystal form ([3]; 40° C., 75% RH, 2 weeks): Unchanged
Degradation [3, 8]: 2.93%
Purity [3, 8]: 92.60%
Degradation (%) ([3]; 80° C. (open), 1 day): 0.14%
Purity (%) ([3]; 80° C. (open), 1 day): 95.39%
Crystal form ([3]; 80° C. (open), 1 day, XRPD): changed
Crystal form ([3]; 80° C., 1 day, listed as API): changed
Degradation ([3]; 80° C., 1 day, listed as API): 0.14%
Purity ([3]; 80° C., 1 day, listed as API): 95.39%
Degradation (%) ([3]; Light contral, 10 days): 0.02%
Purity (%) ([3]; Light contral, 10 days): 95.51%
Crystal form ([3]; Light contral, 10 days, XRPD): Unchanged
Crystal form ([3]; Light control, 10 days): Unchanged
Degradation [3, 9]: 0.02%
Purity [3, 9]: 95.51%
Degradation (%) ([3]; Light exposure, 10 days): 7.89%
Purity (%) ([3]; Light exposure, 10 days): 88.14%
Crystal form ([3]; Light exposure, 10 days, XRPD): changed
Crystal form [3, 10]: changed
Degradation [3, 10]: 7.89%
Purity [3, 10]: 88.14%
Purity (%) ([3]; initial): 95.53%
Purity ([3]; initial, listed as API): 95.53%
Degradation ([3]; light exposure and 40° C., 75% RH): varying degrees of degradation
solubility at 2 h ([4]; buffer solution pH 1.2, 37 °C, pH 1.2, simulated gastric fluid, medium pH 1.2, 2 h): > 10000 µg/mL
solubility at 24 h ([4]; buffer solution pH 1.2, 37 °C, pH 1.2, simulated gastric fluid, medium pH 1.2, 24 h): > 10000 µg/mL
solubility at 2 h ([4]; buffer solution pH 3.0, 37 °C, pH 3, aqueous buffer, medium pH 3.0, 2 h): > 10000 µg/mL
solubility at 24 h ([4]; buffer solution pH 3.0, 37 °C, pH 3, aqueous buffer, medium pH 3.0, 24 h): > 10000 µg/mL
solubility at 2 h ([4]; buffer solution pH 4.5, 37 °C, pH 4.5, aqueous buffer, medium pH 4.5, 2 h): > 10000 µg/mL
Structure (SMILES): CCc1nc2c(N)ncc(-c3ccc(N4CCC(N5CCN(CC)CC5)CC4)c(OC)c3)c2nc1NC1CCOCC1 [Free base Form A, 3-ethyl-8-(4-(4-(4-ethylpiperazin-1-yl)piperidin-1-yl)-3-methoxyphenyl)-N2-(tetrahydro-2H-pyran-4-yl) pyridino [3,4-b]pyrazine-2,5-diamine]
